From patent publication US20240075004A1, “VERY-LONG-CHAIN POLYUNSATURATED FATTY ACIDS, ELOVANOID HYDROXYLATED DERIVATIVES, AND METHODS OF USE” (The Board of Supervisors of Louisiana State University and …, priority 2020, published 2024) come the findings set out here.

One assay concerns human RPE cells. Briefly: Oxidative-stress and Erastin induced cell death in human RPE cells. It is filed as cell-based.
The test system of another assay is IL6. Briefly: IL6 (marker of SASP) induced by IL1β in diabetic hypothalamus. Type of assay: cell-based. The settings on record: diabetic db/db mice hypothalamus, different effects in female and male mice.
Assay [1] concerns IL-6, IL-1β, IL-8/CXCL8, CCL2/MCP-1, CXCL1/KC/GRO, VEGF, ICAM1(CD54), IL-10. The assay can be described thus: Sandwich ELISA of cytokines and chemokines in HNEpC challenged with stressors. The following applies: allergens. Type of assay: cell-based, human. The source says:
• Lipopolysaccharide (LPS) from Escherichia coli serotype 0111:B4 (Catalog #L4391) were obtained from Sigma-Aldrich. LPS is the principal component of Gram-negative bacteria that activates the innate immune system through its recognition by Toll-like receptor 4 (TLR4). This leads to a signaling cascade that ultimately results in the activation of NF-κB and the production of proinflammatory cytokines. LPS we used for our experiments is a preparation of smooth (S)-form LPS purified from the Gram-negative E. coli 0111:B4 that was used at 30 μg/mL to challenge HNEpC. • Polyinosinic-polycytidylic acid (abbreviated as poly(I:C) or poly(rI):poly(rC)) is a synthetic analog of double-stranded viral RNA (dsRNA), a molecular pattern associated with viral infection such as loss of epithelial integrity, increased production of mucus and inflammatory cytokines. Poly(I:C), a TLR3 agonist activates the antiviral pattern recognition receptors TLR3, RIG-I/MDA5 and PKR, thereby inducing signaling via multiple inflammatory pathways, including NF-κB and IRF. High Molecular Weight Poly(I:C) comprises long strands of inosine poly(I) homopolymer annealed to strands of cytidine poly(C) homopolymer. The average size of Poly(I:C) HMW is from 1.5 kb to 8 kb. […]
A general note: In an ELISA, binding on a coated surface is turned into a signal by an enzyme label.

Consider `CC/C=C\C[C@H](O)\C=C/C=C/C=C/[C@H](O)C/C=C\C/C=C\CCCCCCCCCCCCC(=O)O` [ELV-N-32], for which the “oxidative-stress and Erastin induced cell deaths” value in the assay with human RPE cells is listed as “counteracted”.

With `CC/C=C\C[C@H](O)\C=C/C=C/C=C/[C@H](O)C/C=C\C/C=C\CCCCCCCCCCCCCCC(=O)O` [ELV-N-34], the “levels of IL6 (marker of SASP)” value in the assay with IL6 was “reduced”. Besides, the “allergen-triggered production of inflammatory cytokines, chemokines, ICAM1 and induction of autophagy and SASP” value in assay [1] was “attenuated”.
